Our source for the IC50 values is ChEMBL document CHEMBL5365511, “Novel Compounds as TEAD Inhibitors for Treating Cancer” (ACS Med Chem Lett, 2023).

For assay [1], the target named is Transcriptional enhancer factor TEF-3 (Homo sapiens, UniProt Q15561). Put plainly: Displacement of biotinylated lipid pocket probes from His-tagged TEAD4 (unknown origin) preincubated for 4 hrs followed by lipid pocket probe addition and measured after 60 mins by TR-FRET assay.
For assay [2], the target named is Transcriptional enhancer factor TEF-4 (Homo sapiens, UniProt Q15562). Put plainly: Displacement of biotinylated lipid pocket probes from His-tagged TEAD2 (unknown origin) preincubated for 4 hrs followed by lipid pocket probe addition and measured after 60 mins by TR-FRET assay.
In assay [3] the target is Transcriptional enhancer factor TEF-1 (Homo sapiens, UniProt P28347). Put plainly: Displacement of biotinylated lipid pocket probes from His-tagged TEAD1 (unknown origin) preincubated for 4 hrs followed by lipid pocket probe addition and measured after 60 mins by TR-FRET assay.
In assay [4] the target is Transcriptional enhancer factor TEF-5 (Homo sapiens, UniProt Q99594). Description: Displacement of biotinylated lipid pocket probes from His-tagged TEAD3 (unknown origin) preincubated for 4 hrs followed by lipid pocket probe addition and measured after 60 mins by TR-FRET assay.
Sequence of Transcriptional enhancer factor TEF-5 (Q99594 whole entry): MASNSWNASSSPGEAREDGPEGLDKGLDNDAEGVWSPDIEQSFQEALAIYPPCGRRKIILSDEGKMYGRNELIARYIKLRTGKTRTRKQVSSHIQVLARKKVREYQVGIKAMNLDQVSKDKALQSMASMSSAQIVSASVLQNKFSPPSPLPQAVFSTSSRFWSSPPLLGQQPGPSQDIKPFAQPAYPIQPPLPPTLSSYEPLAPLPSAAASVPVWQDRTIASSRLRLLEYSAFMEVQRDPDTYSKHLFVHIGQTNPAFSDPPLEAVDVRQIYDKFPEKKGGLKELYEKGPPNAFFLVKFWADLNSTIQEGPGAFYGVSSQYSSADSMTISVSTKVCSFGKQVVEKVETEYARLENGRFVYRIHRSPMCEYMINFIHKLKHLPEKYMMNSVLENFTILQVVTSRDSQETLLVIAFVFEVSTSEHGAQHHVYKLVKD

Sequence of Transcriptional enhancer factor TEF-4 (Q15562 whole entry): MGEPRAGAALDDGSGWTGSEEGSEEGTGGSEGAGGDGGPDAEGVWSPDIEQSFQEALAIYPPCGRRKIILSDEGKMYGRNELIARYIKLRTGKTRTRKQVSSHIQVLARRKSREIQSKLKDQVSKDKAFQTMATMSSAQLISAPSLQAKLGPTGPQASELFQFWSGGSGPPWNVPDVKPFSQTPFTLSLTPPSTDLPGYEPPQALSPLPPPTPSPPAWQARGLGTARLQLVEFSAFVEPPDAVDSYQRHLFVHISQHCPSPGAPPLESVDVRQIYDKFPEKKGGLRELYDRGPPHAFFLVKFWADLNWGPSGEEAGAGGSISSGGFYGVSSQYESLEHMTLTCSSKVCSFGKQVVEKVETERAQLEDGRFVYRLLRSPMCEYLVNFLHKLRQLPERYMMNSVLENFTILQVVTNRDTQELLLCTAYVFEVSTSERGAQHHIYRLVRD
Sequence of Transcriptional enhancer factor TEF-3 (Q15561 whole entry): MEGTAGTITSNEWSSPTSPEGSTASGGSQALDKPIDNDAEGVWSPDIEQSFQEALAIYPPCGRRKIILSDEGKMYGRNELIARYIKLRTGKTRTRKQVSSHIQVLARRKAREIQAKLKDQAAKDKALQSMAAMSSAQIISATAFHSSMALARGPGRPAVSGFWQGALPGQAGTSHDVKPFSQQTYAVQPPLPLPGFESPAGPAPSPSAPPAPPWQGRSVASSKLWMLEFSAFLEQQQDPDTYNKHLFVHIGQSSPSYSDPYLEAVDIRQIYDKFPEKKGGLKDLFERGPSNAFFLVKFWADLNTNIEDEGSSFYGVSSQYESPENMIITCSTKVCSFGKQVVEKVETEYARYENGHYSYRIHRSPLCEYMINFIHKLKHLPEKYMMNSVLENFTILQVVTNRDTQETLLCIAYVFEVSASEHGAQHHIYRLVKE
Sequence of Transcriptional enhancer factor TEF-1 (P28347 whole entry): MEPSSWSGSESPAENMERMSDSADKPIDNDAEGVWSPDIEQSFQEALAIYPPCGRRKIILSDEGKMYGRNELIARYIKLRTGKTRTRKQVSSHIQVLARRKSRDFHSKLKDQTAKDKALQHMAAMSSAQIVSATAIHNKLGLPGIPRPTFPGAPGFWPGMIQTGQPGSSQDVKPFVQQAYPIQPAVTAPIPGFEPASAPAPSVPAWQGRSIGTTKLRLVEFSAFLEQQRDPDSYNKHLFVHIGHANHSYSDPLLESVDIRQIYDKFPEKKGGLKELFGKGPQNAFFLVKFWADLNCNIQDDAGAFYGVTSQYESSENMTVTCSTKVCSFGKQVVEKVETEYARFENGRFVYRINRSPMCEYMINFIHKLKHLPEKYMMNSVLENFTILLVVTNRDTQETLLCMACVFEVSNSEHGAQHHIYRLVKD

For the compound `Cn1cnc2c(-c3ccc(OC(F)(F)F)cc3)nc(C3CN(C(=O)C4=CCC4)C3)nc21`, the IC50 in assay [1] was determined as 2 nM; in assay [2] it was 4 nM.
For the compound `C=CC(=O)N(C)Cc1cc(-c2ccc(OC(F)(F)F)cc2)c2c(c1CO)CCO2`, the IC50 worked out at 4 nM in assay [3], 7 nM in assay [4], 3 nM in assay [1] and 6 nM in assay [2].
With `C=CC(=O)NCc1cc(-c2ccc(OC(F)(F)F)cc2)c2ncn(C)c2c1C#CCO`, the IC50 was 6 nM in assay [3] and 3 nM in assay [1].
For `C=CC(=O)N1CC(c2nc(-c3ccc(OC(F)(F)F)cc3)c3ncsc3n2)C1`, the IC50 stood at 3 nM in assay [3], 3 nM in assay [4], 2 nM in assay [1] and 4 nM in assay [2].
